Holding throughout (test): NCI-60 cell line screen, 48 h
The subject of assay [1] is ACHN renal.
In assay [2] the test system is CCRF-CEM leukemia.
The test system of assay [3] is DMS 114 small cell lung.
For assay [4], the system named is DMS 273 small cell lung.
Assay [5] deals with M14 melanoma.
In assay [6] the test system is M19-MEL melanoma.
The subject of assay [7] is NCI-H23 lung.
In assay [8] the test system is NCI-H522 lung.
For assay [9], the system named is RPMI-8226 leukemia.
Assay [10] has as its system SNB-75 CNS.
For assay [11], the system named is MALME-3M melanoma.

The structures appear in SMILES notation. Values joined by “and” are separate entries in the source; they are usually repeats but may differ in a detail not shown here. Identical values can stand only once.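 1) Cells in 96-well plates. 2) Compound, 48 h, 5 concentrations. 3) Linear interpolation between surrounding doses. 4) Unreached endpoint = highest concentration. GI50: concentration for 50% inhibition of growth. TGI marks complete inhibition of growth.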 Some results are limits rather than exact numbers.

Regarding `CCCC(Sc1ccccc1)P(=O)(c1ccccc1)c1ccccc1` (stereo not given), the TGI in assay [1] was 61.4 µM; in assay [2], more than 100 µM; in assay [3], more than 100 µM; in assay [4], more than 100 µM; in assay [5], more than 100 µM; in [6], more than 100 µM. For the same compound, the TGI in assay [7] is more than 100 µM; in assay [8] it was more than 100 µM; in assay [9] it was 51.8 µM; in assay [10], more than 100 µM.
As for `OCC1OC(n2cnc3c(=S)nc[nH]c32)C(O)C1O` (stereo not given), the GI50 is 4.87 µM in assay [1]; 3.35 µM in assay [2]; 1.15 µM in assay [5]; more than 30 µM in [11]; 4.15 µM in assay [7]; 9.27 µM in [8]. The GI50 is 2.57 µM in [9] and 34.1 µM in assay [10]. Further, the TGI was more than 2500 µM in [1]; more than 2500 µM in assay [2]; 2490 µM in assay [3]; more than 2310 µM in [4]; more than 2500 µM in assay [5]; more than 2500 µM in [6]. Also, the TGI was 2480 µM and > 100 µM in [11]; more than 2500 µM in assay [7]; more than 2500 µM in assay [8]; more than 2500 µM in assay [9]; more than 2500 µM in assay [10].
For the compound `C1CCOC2(CCC3(CC2)OCCCCO3)OC1`, the TGI in assay [1], in assay [2], in [3], in assay [4], in assay [5] and in assay [6] was more than 100 µM throughout. Further, the TGI in [11], in assay [8], in assay [9] and in assay [10] was more than 100 µM each time.
Take `CC(=O)NC1CC2Oc3ccc(C)cc3C(C)(O2)C1O` (stereo not given): the TGI in assay [1], in [2], in assay [3], in [4], in assay [5] and in assay [6] was more than 100 µM in each case. Also, the TGI in assay [11], in assay [7], in assay [8], in assay [9] and in assay [10] was more than 100 µM each time.
Turning to `C/C=C/C=C/CCCCCCCCCCCCCC1(OC)C=CC(CC(=O)OC)OO1` (stereo not given), the GI50 in assay [1] is 6 µM; in [2], 2.44 µM; in assay [7], 4.3 µM; in assay [8], 1.58 µM. The TGI in [1] came out at 16.7 µM; in assay [2] it was 5.8 µM; in [4] it was 3.03 µM; in assay [5], 28.6 µM; in assay [6], 24.1 µM; in assay [11], 50.8 µM. Moreover, the TGI was found to be 14 µM in assay [7], 3.09 µM in assay [8], 46 µM in assay [9] and 22.4 µM in assay [10].
As to `C=CCC(OCCOCC)c1cc(OCCOCC)ccc1OC` (stereo not given), the TGI in assay [1], in assay [2], in assay [4], in [5], in assay [6] and in [11] was more than 100 µM each time. Besides, the TGI in assay [8], in assay [9] and in [10] was more than 100 µM each time.
Regarding `CN(C)c1ccc(C(=C2C=CC(=[N+](C)C)C=C2)c2ccc(N(C)C)cc2)cc1`, the GI50 was 0.253 µM in [1]; 0.14 µM in [5]; 0.216 µM in assay [11]; 0.0358 µM in [9]; 0.112 µM in assay [10]. Besides, the TGI in assay [1] was 1.17 µM and 1.01 µM; in assay [2], 0.832 µM; in [4], 1.15 µM; in [5], 0.598 µM and 1.39 µM; in assay [6] it was 1.41 µM; in [11], 0.879 µM and 0.773 µM. Also, the TGI in assay [7] is 0.37 µM; in assay [9] it was 0.165 µM and 0.163 µM; in assay [10], 0.581 µM and 1.03 µM.
On to `O=C(Nc1nc(=S)c2c(ncn2CCO)[nH]1)c1ccccc1`, for which the TGI in assay [1], in assay [2], in assay [3], in assay [4], in assay [5] and in assay [6] was more than 100 µM each time. For the same compound, the TGI in assay [11], in assay [8], in assay [9] and in [10] was more than 100 µM each time.
For the compound `COc1cc(C)c(O)c(C(=O)O)c1`, the TGI in assay [1], in [2], in assay [3], in assay [4], in assay [5] and in [6] was more than 100 µM throughout. The TGI in assay [11], in assay [7], in assay [8] and in [10] was more than 100 µM in each case.
As for `COC(=O)C1=C(C(=O)OC)SC(=C(N=Nc2ccccc2)c2ccccc2)S1`, the TGI in assay [1], in assay [2], in assay [4], in assay [5], in [6] and in assay [11] was more than 100 µM each time. Further, the TGI in assay [7], in assay [8], in assay [9] and in assay [10] was more than 100 µM throughout.
Take `C=C1CCc2occ(C)c2C2C1C1=C(CC(C)C1=O)C1OC12C` (stereo not given): the TGI in assay [1], in [2], in assay [3], in assay [5], in [6] and in assay [11] was more than 100 µM in each case. Further, the TGI in [7], in [8] and in [10] was more than 100 µM each time.
Take `CC1CCC(C(C)C)C(O[C@@H]2OC(=O)C[C@@H]2Sc2ccccc2)C1` (stereo not given in full): the TGI in assay [1] came out at 41.7 µM; in [2], 26.8 µM; in [3], 46.9 µM; in [4], 36.7 µM; in assay [5], 59.3 µM; in [6] it was 62.1 µM. Also, the TGI in [11] turned out to be 58.7 µM; in [7], 96.3 µM; in assay [9], 34.7 µM; in assay [10], 98.3 µM.
For `O=C1c2ccccc2CC1C1(O)C(=O)Nc2ccccc21` (stereo not given), the TGI in assay [1], in assay [3], in [4], in [5], in assay [6] and in assay [11] was more than 100 µM in each case. In addition, the TGI in assay [7], in assay [8], in assay [9] and in [10] was more than 100 µM in each case.
For `CCOC(=O)c1nc(-c2ccccc2)oc1OCC`, the TGI in [2], in assay [3], in assay [4], in assay [5], in [6] and in assay [7] was more than 100 µM in each case. Moreover, the TGI in [8], in [9] and in assay [10] was more than 100 µM throughout.
On to `N.N.NCCCCCCN.O=C([O-])CC(=O)[O-].O=C([O-])CC(=O)[O-].[Pt+4].[Pt+4]`, for which the GI50 in assay [1] is 36.1 µM; in [2] it was 15.6 µM; in [4], 40.8 µM; in assay [5], more than 86.7 µM; in assay [11] it was more than 100 µM; in [7], 57.3 µM. Moreover, the GI50 in assay [8] was 29 µM; in [9], more than 100 µM; in assay [10], 38.7 µM. Moreover, the TGI in [1], in assay [2], in assay [4], in [5], in [11] and in assay [7] was more than 100 µM in each case. Besides, the TGI in assay [8], in [9] and in [10] was more than 100 µM in each case.
Take `COc1cc(/C=C/C(=O)c2sc(NNC(C)=O)nc2C)ccc1O`: the TGI in [1], in assay [2], in assay [3], in assay [4], in assay [11] and in assay [7] was more than 100 µM each time. Besides, the TGI in assay [8], in assay [9] and in [10] was more than 100 µM each time.
For `C[C@@H](NC1CCC[C@H]1O)c1ccccc1` (stereo not given in full), the TGI in [1], in assay [2], in assay [3], in assay [4], in assay [5] and in assay [6] was more than 100 µM throughout. The TGI in assay [11], in assay [9] and in assay [10] was more than 100 µM in each case.
Regarding `COC(=O)C1=C(O)c2cc3c(cc2[C@H](c2cc(OC)c(OC)c(OC)c2)C1C(=O)OC)OCO3` (stereo not given in full), the TGI in assay [1] was 58.1 µM; in assay [2] it was more than 100 µM; in assay [3], 68.8 µM; in assay [4], more than 100 µM; in [5] it was more than 100 µM; in [6] it was more than 100 µM. Further, the TGI in assay [11] is 87.3 µM; in assay [7], more than 100 µM; in [9], more than 100 µM; in assay [10], 66 µM.
For `O=C1CCC2(c3ccccc3)Nc3ncccc3N12` (stereo not given), the TGI in assay [1], in assay [2], in assay [3], in [5], in assay [6] and in assay [11] was more than 100 µM throughout. The TGI in [7], in [8], in [9] and in assay [10] was more than 100 µM each time.
With `COC(=O)c1cc(-c2cccn2C)c2c(c1C(=O)OC)c1ccccc1n2C`, the TGI in [1], in assay [3], in assay [4], in assay [5], in assay [11] and in assay [7] was more than 100 µM throughout. The TGI in [8] is 80.9 µM; in assay [9], more than 100 µM; in assay [10], more than 100 µM.
For `CN(C)CC1CCCCCC(CN(C)C)C1=O` (stereo not given), the GI50 in assay [1] is 1.07 µM; in assay [2], 1.38 µM; in assay [5], 1.19 µM; in assay [11], 2.19 µM; in assay [7], 8.94 µM; in assay [8], 0.145 µM. For the same compound, the GI50 in [9] is 3.15 µM; in assay [10], 12.2 µM. Moreover, the TGI was 2.64 µM in assay [1]; 3.87 µM in assay [2]; 11.9 µM in assay [5]; 5.01 µM in assay [11]; 27 µM in [7]; 0.392 µM in assay [8]. The TGI in assay [9] came out at 13.9 µM; in assay [10], 27.5 µM.
On to `O=C1NC2C=CN(Cc3ccccc3)C=C2C(=O)N2CCCC12` (stereo not given), for which the TGI in [1], in assay [2], in assay [3], in [4], in assay [5] and in assay [6] was more than 100 µM in each case. For the same compound, the TGI in [11], in [7], in assay [8] and in [10] was more than 100 µM each time.
In the case of `N#Cc1cc([N+](=O)[O-])ccc1NC(=O)/C(=N/N)C(C(=O)c1ccc(Cl)c(Cl)c1)C1OC(=O)c2ccccc21` (stereo not given), the TGI in assay [1], in assay [2], in [3], in assay [6], in [11] and in assay [7] was more than 100 µM each time. Also, the TGI in assay [8] and in assay [9] was more than 100 µM each time.
As to `COc1cc(C2CC(c3ccc(N(C)C)cc3)=NN2C(C)=O)cc(OC)c1OC` (stereo not given), the GI50 is 3.57 µM in [1]; 8.17 µM in assay [2]; 1.39 µM in [5]; more than 100 µM in [11]; 4.33 µM in assay [7]; 1.95 µM in assay [8]. The GI50 in assay [9] was 3.77 µM; in assay [10] it was 1.43 µM. For the same compound, the TGI is more than 100 µM in [1]; more than 100 µM in [2]; more than 100 µM in assay [5]; more than 100 µM in assay [11]; more than 67 µM in assay [7]; more than 27.1 µM in [8]. Also, the TGI in assay [9] was more than 39.3 µM; in [10], more than 100 µM.
